Results published in patent US8691757B2 (Bristol-Myers Squibb Company, priority 2011, dated 2014).

Assays:
[1] = system: HCV genotype 1a (H77 strain) replicon in HUH-7 cells; assay: HCV replicon luciferase reporter assay, genotype 1a; format: cell-based; conditions: Hepatitis C virus, 72 h, HCV genotype 1a replicon, 3 days incubation, Renilla luciferase, range classes
Description: (§1) An HCV replicon whole cell system was established as described by Lohmann V, Korner F, Koch J, Herian U, Theilmann L, Bartenschlager R., Science 285(5424):110-3 (1999) and modified to introduce a luciferase reporter, as first described by Krieger et al (Krieger N, Lohmann V, and Bartenschlager R, J. Virol. 75(10):4614-4624 (2001)). CDNA encoding a humanized form of the Renilla luciferase gene and a linker sequence fused directly to the 3′-end of the luciferase gene were introduced into the replicon construct using an Asc1 restriction site located in core, directly upstream of the neomycin marker gene. The adaptive mutation at position 1179 (serine to isoleucine) was also introduced (Blight K J, Kolykhalov, A A, Rice, C M, Science 290(5498):1972-1974). A stable cell line constitutively expressing this HCV replicon construct was generated by first linearizing plasmid DNAs with ScaI. RNA transcripts were synthesized in vitro using the T7 MegaScript transcription kit (Ambion, Austin, Tex.) according to manufacturer's directions. In vitro transcripts of the cDNA were transfected into the human hepatoma cell line, HUH-7. […] Resulting cell lines were characterized for positive and negative strand RNA production and protein production over time.
A stable HCV replicon luciferase reporter cell line representing the genotype 1a H77 strain (Yanagi M, Purcell R H, Emerson S U, et al. Transcripts from a single full-length cDNA clone of hepatitis C virus are infectious when directly transfected into the liver of a chimpanzee. Proc Natl Acad Sci USA 1997; 94(16):8738-8743) was generated as described previously for the genotype 1b (Con1) replicon luciferase cell line. The replicon construct was modified by introducing mutations were introduced into the genes encoding the NS3 helicase domain (proline replaced by leucine at position 1496) and NS5A (serine to isoleucine at position 2204) to improve replication in cell culture.
(§2) HCV replicon luciferase assays were developed to monitor the inhibitory effects of compounds described in the disclosure on HCV genotypes 1a and 1b viral replication. HUH-7 cells, constitutively expressing the HCV replicon, were grown in Dulbecco's Modified Eagle Media (DMEM) (Gibco-BRL) containing 10% Fetal calf serum (FCS) (Sigma) and 1 mg/mL G418 (Gibco-BRL). Compounds were serially diluted 3 folds in DMSO for a twenty-point titration and subsequently transferred to sterile 384-well tissue-culture treated plates (Corning cat #3571). The plates were then seeded with 50 μL of cells at a density of 3.0×10^3 cells/well in DMEM containing 4% FCS (final DMSO concentration at 0.5%). After 3 days incubation at 37° C., cells were analyzed for Renilla Luciferase activity using the EnduRen as substrate (Promega cat #E6485). The EnduRen substrate was diluted in DMEM and then added to the plates to a final concentration of 7.5 μM. The plates were incubated for 2 hrs at 37° C. and then read immediately for 30 seconds with Viewlux Imager (PerkinElmer) using a luminescence program. To assess cytotoxicity of compounds, CC50 values were generated by multiplexing the EnduRen-containing plates with Cell Titer-Blue (Promega, cat #G8082). Cell-Titer Blue (3 μL) was added to each well and incubated for 8 hrs at 37° C. The fluorescence signal from each well was read, with an excitation wavelength at 525/10 nm and an emission wavelength of 598/10 nm, using the Viewlux Imager.
(§3) The EC50 values for compounds were calculated by using a four-parameter logistic equation: y=A+((B−A)/(1+((C/x)^D))), where A and B denotes minimal and maximal % inhibition, respectively, C is the EC50, D is the hill slope and x represents compound concentration.

[2] = system: HCV genotype 1b (Con1) replicon in HUH-7 cells; assay: HCV replicon luciferase reporter assay, genotype 1b; format: cell-based; conditions: Hepatitis C virus, 72 h, HCV genotype 1b replicon, 3 days incubation, Renilla luciferase, range classes
Description: as §1, with “time. […]” for “time.”
as §2, §3

COc1ccc2c(O[C@@H]3C[C@H]4C(=O)N[C@]5(C(=O)NS(=O)(=O)C6(C)CC6)C[C@H]5/C=C\[C@H](C)CCC[C@@H](C)[C@H](NC(=O)OC(C)(C)C(F)(F)F)C(=O)N4C3)ncc(OC)c2c1 [Compound 14, 1,1,1-trifluoro-2-methylpropan-2-yl (2R,6S,7R,11R,13aS,14aR,16aS,Z)-2-(4,6-dimethoxyisoquinolin-1-yloxy)-7,11-dimethyl-14a-(1-methylcyclopropylsulfonylcarbamoyl)-5,16-dioxo-1,2,3,5,6,7,8,9,10,11,13a,14,14a,15,16,16a-hexadecahydrocyclopropa[e]pyrrolo[1,2-a][1,4]diazacyclopentadecin-6-ylcarbamate] was tested, and the EC50 [1] was 2.01 to 5 nM and the EC50 [2] was 1.01 to 2 nM.
Compound COc1cc2c(OC)cnc(O[C@@H]3C[C@H]4C(=O)N[C@]5(C(=O)NS(=O)(=O)C6(C)CC6)C[C@H]5/C=C\[C@H](C)CCC[C@@H](C)[C@H](NC(=O)OC(C)(C)C(F)(F)F)C(=O)N4C3)c2cc1F [Compound 15, 1,1,1-trifluoro-2-methylpropan-2-yl (2R,6S,7R,11R,13aS,14aR,16aS,Z)-2-(7-fluoro-4,6-dimethoxyisoquinolin-1-yloxy)-7,11-dimethyl-14a-(1-methylcyclopropylsulfonylcarbamoyl)-5,16-dioxo-1,2,3,5,6,7,8,9,10,11,13a,14,14a,15,16,16a-hexadecahydrocyclopropa[e]pyrrolo[1,2-a][1,4]diazacyclopentadecin-6-ylcarbamate] has an EC50 [1] of 1.01 to 2 nM and an EC50 [2] of 1.01 to 2 nM.
Compound COc1ccc2ncc(O[C@@H]3C[C@H]4C(=O)N[C@]5(C(=O)NS(=O)(=O)C6(C)CC6)C[C@H]5/C=C\[C@H](C)CCC[C@@H](C)[C@H](NC(=O)OC(C)(C)C(F)(F)F)C(=O)N4C3)nc2c1 [Compound 17] has an EC50 [1] of 5.01 to 68 nM and an EC50 [2] of 5.01 to 68 nM.
In the case of COc1ccc2ncc(O[C@@H]3C[C@H]4C(=O)N[C@]5(C(=O)NS(=O)(=O)C6(C)CC6)C[C@H]5/C=C\[C@@H](C)CCC[C@@H](C)[C@H](NC(=O)OC(C)(C)C(F)(F)F)C(=O)N4C3)nc2c1 [Compound 18], the EC50 [1] is reported as 5.01 to 68 nM and the EC50 [2] is reported as 5.01 to 68 nM.
In the case of CCOc1cnc(O[C@@H]2C[C@H]3C(=O)N[C@]4(C(=O)NS(=O)(=O)C5(C)CC5)C[C@H]4/C=C\[C@H](C)CCC[C@@H](C)[C@H](NC(=O)OC(C)(C)C(F)(F)F)C(=O)N3C2)c2ccccc12 [Compound 19, 1,1,1-trifluoro-2-methylpropan-2-yl (2R,6S,7R,11R,13aS,14aR,16aS,Z)-2-(4-ethoxyisoquinolin-1-yloxy)-7,11-dimethyl-14a-(1-methylcyclopropylsulfonylcarbamoyl)-5,16-dioxo-1,2,3,5,6,7,8,9,10,11,13a,14,14a,15,16,16a-hexadecahydrocyclopropa[e]pyrrolo[1,2-a][1,4]diazacyclopentadecin-6-ylcarbamate], the EC50 [1] is reported as 2.01 to 5 nM and the EC50 [2] is reported as 1.01 to 2 nM.
COc1ccc2c(O[C@@H]3C[C@H]4C(=O)N[C@]5(C(=O)NS(=O)(=O)C6CC6)C[C@H]5/C=C\[C@H](C)CCC[C@@H](C)[C@H](NC(=O)OC(C)(C)C)C(=O)N4C3)ncc(OC)c2c1 [Compound 21, tert-butyl (2R,6S,7R,11R,13aS,14aR,16aS,Z)-14a-(cyclopropylsulfonylcarbamoyl)-2-(4,6-dimethoxyisoquinolin-1-yloxy)-7,11-dimethyl-5,16-dioxo-1,2,3,5,6,7,8,9,10,11,13a,14,14a,15,16,16a-hexadecahydrocyclopropa[e]pyrrolo[1,2-a][1,4]diazacyclopentadecin-6-ylcarbamate] gave an EC50 [1] of 1.01 to 2 nM and an EC50 [2] of 0.2 to 1 nM.
In the case of COc1ccc2c(O[C@@H]3C[C@H]4C(=O)N[C@]5(C(=O)NS(=O)(=O)C6CC6)C[C@H]5/C=C\[C@H](C)CCC[C@@H](C)[C@H](NC(=O)OC(C)(C)C(F)(F)F)C(=O)N4C3)ncc(OC)c2c1 [Compound 22, 1,1,1-trifluoro-2-methylpropan-2-yl (2R,6S,7R,11R,13aS,14aR,16aS,Z)-14a-(cyclopropylsulfonylcarbamoyl)-2-(4,6-dimethoxyisoquinolin-1-yloxy)-7,11-dimethyl-5,16-dioxo-1,2,3,5,6,7,8,9,10,11,13a,14,14a,15,16,16a-hexadecahydrocyclopropa[e]pyrrolo[1,2-a][1,4]diazacyclopentadecin-6-ylcarbamate], the EC50 [1] is reported as 1.01 to 2 nM and the EC50 [2] is reported as 0.2 to 1 nM.
With COc1cnc(O[C@@H]2C[C@H]3C(=O)N[C@]4(C(=O)NS(=O)(=O)C5CC5)C[C@H]4/C=C\[C@H](C)CCC[C@@H](C)[C@H](NC(=O)OC(C)(C)C)C(=O)N3C2)c2cc(F)ccc12 [Compound 23, tert-butyl (2R,6S,7R,11R,13aS,14aR,16aS,Z)-14a-(cyclopropylsulfonylcarbamoyl)-2-(7-fluoro-4-methoxyisoquinolin-1-yloxy)-7,11-dimethyl-5,16-dioxo-1,2,3,5,6,7,8,9,10,11,13a,14,14a,15,16,16a-hexadecahydrocyclopropa[e]pyrrolo[1,2-a][1,4]diazacyclopentadecin-6-ylcarbamate] the EC50 [1] was 5.01 to 68 nM and the EC50 [2] was 5.01 to 68 nM.
With COc1cnc(O[C@@H]2C[C@H]3C(=O)N[C@]4(C(=O)NS(=O)(=O)C5CC5)C[C@H]4/C=C\[C@H](C)CCC[C@@H](C)[C@H](NC(=O)OC(C)(C)C(F)(F)F)C(=O)N3C2)c2cc(F)ccc12 [Compound 24, 1,1,1-trifluoro-2-methylpropan-2-yl (2R,6S,7R,11R,13aS,14aR,16aS,Z)-14a-(cyclopropylsulfonylcarbamoyl)-2-(7-fluoro-4-methoxyisoquinolin-1-yloxy)-7,11-dimethyl-5,16-dioxo-1,2,3,5,6,7,8,9,10,11,13a,14,14a,15,16,16a-hexadecahydrocyclopropa[e]pyrrolo[1,2-a][1,4]diazacyclopentadecin-6-ylcarbamate] the EC50 [1] was 5.01 to 68 nM and the EC50 [2] was 5.01 to 68 nM.
In the case of COc1cnc(O[C@@H]2C[C@H]3C(=O)N[C@]4(C(=O)NS(=O)(=O)C5(C)CC5)C[C@H]4/C=C\[C@H](C)CCC[C@@H](C)[C@H](NC(=O)OC(C)(C)C(F)(F)F)C(=O)N3C2)c2cccc(Cl)c12 [Compound 25, 1,1,1-trifluoro-2-methylpropan-2-yl (2R,6S,7R,11R,13aS,14aR,16aS,Z)-2-(5-chloro-4-methoxyisoquinolin-1-yloxy)-7,11-dimethyl-14a-(1-methylcyclopropylsulfonylcarbamoyl)-5,16-dioxo-1,2,3,5,6,7,8,9,10,11,13a,14,14a,15,16,16a-hexadecahydrocyclopropa[e]pyrrolo[1,2-a][1,4]diazacyclopentadecin-6-ylcarbamate], the EC50 [1] is reported as 1.01 to 2 nM and the EC50 [2] is reported as 0.2 to 1 nM.
